Results as given in patent US20160058754A1, “Nalmefene for Treatment of Patients with Anxiety Disorder” (H. LUNDBECK A/S, priority 2013, published 2016).

Legend:
κ receptor = κ receptor (Homo sapiens, UniProt P41145); settings: in vitro studies; cited from earlier work
δ receptor = δ receptor (Homo sapiens, UniProt P41143); settings: in vitro studies; cited from earlier work
μ receptor = μ receptor (Homo sapiens, UniProt P35372); settings: in vitro studies; cited from earlier work
rats [1] = assay: Vogel test in rats; format: in vivo, rat; settings: 0.01, 0.1 and 1 mg/kg s.c. 30 minutes before the test; 3-minute test; vs vehicle
Excerpt: Pairing of water drinking with […] shock punishment will induce a conflict in water deprived rats and lead to less frequent water seeking behaviour. Pretreatment of rats with an anxiolytic will counteract the conflict and increase the frequency of water seeking. The test can be conducted as described in detail by Vogel et al., Psychopharmacology, (1971), 21: pp. 1-7. In brief, rats are adapted to the test chambers, a Plexiglas box, equipped with a grid floor made of stainless steel bars and a drinking bottle with tap water. After the adaptation period, the animals are deprived of water and then placed in the test chamber for free access to the drinking bottle for a short period. Afterwards, they are allowed a short free-drinking session in their home cage. After another water deprivation period, the rats are placed again in the test chamber and allowed to drink for a very short time (30 s); immediately afterwards, their drinking attempts are punished with an electric shock. […] The number of shocks accepted throughout a 5-min experimental session was recorded.
Nalmefene was tested as the sole active compound in the Vogel model in rats. […] The number of punished drinks was counted during a 3-minute test. Nalmefene was evaluated at 3 doses (0.01, 0.1 and 1 mg/kg), administered s.c. 30 minutes before the test, and compared with a vehicle control group.

[2] = test system: patients with alcohol dependence; assay: Clinical efficacy measured by POMS score (Studies 12014A, 12023A, 12013A); format: in vivo, human
Excerpt: The term “POMS” is an abbreviation of “profile of mood states” and refers to a self-report inventory scale developed to assess the effect of e.g. new medication on mood states and mood changes. The scale measures six domains: Tension-Anxiety, Depression-Rejection, Anger-Hostility, Vigour-Activity, Fatigue-Inertia, and Confusion-Bewilderment. A total mood disturbance (TMD) score can be calculated. In general, a lower POMS score indicates a better mood state than a higher score except for vigour-activity, for which a higher POMS score indicates a better mood state. The scale has been described e.g. by McNair et al., Profile of mood states. San Diego, Calif.: Educational and Industrial Testing Service and by Nyenhios and Yamamoto, J. Clin. Psychology, (1999), Vol. 55(1): 79-86.
Assessment of POMs scores in Studies 12014A, 12023A and 12013A was used to evaluate the effect of nalmefene on mood states and mood changes throughout the study. […] Tables 5 and 7 indicate that patients with an anxiety disorder at baseline had higher POMS scores at baseline when compared to those patients without anxiety disorders. The change in POMS scores from baseline are illustrated in FIGS. 3-9. […] A remarkable improvement is seen over the weeks 8-20.
(§1) Another approach to identify patients with an anxiety disorder is by defining Anxiety Disorder at baseline as any ongoing medical history coded by the Medical Dictionary for Regulatory Activities (MedDRA) Preferred Term as ‘Acute Stress Disorder’, ‘Agoraphobia’, ‘Anxiety’, ‘Anxiety Disorder’, ‘Emotional Distress’, ‘Generalised Anxiety Disorder’, ‘Nervousness’, ‘Nosophobia’, ‘Obsessive-Compulsive Disorder’, ‘Panic Attack’, ‘Panic Disorder’, ‘Panic Disorder With Agoraphobia’, ‘Post-Traumatic Stress Disorder’, ‘Social Phobia’ and/or ‘Stress and Tension’. In examples 1 and 2 below patients classified with an anxiety disorder at baseline were selected based on said MedDRA terms.
Assessment of POMs scores in Studies 12014A, 12023A and 12013A was used to evaluate the effect of nalmefene on mood states and mood changes throughout the study. […]

[3] = test system: patients with alcohol dependence; assay: Clinical efficacy on the reduction of alcohol consumption (Studies 12014A, 12023A, 12013A); format: in vivo, human
Procedure: The efficacy of nalmefene in the reduction of alcohol consumption in patients with alcohol dependence (DSM-IV) has been evaluated in studies 12014A, 12023A and 12013A. The efficacy of nalmefene was measured using two co-primary endpoints: the change from baseline in the monthly number of heavy drinking days (HDDs) and the change from baseline in the average daily total alcohol consumption (TAC).
as §1
The efficacy of nalmefene on the reduction of alcohol consumption in patients with alcohol dependence (DSM-IV) was evaluated in two efficacy studies (Study 12014A and Study 12023A) and a safety study (Study 12013A). All studies were multi-national, multi-site, randomised, double blind, two parallel group, placebo controlled studies. The efficacy was evaluated over 24 weeks of treatment. The studies included outpatients, aged ≧18 years, with a primary diagnosis of alcohol dependence. […] Patients with psychiatric co-morbidity (that is, patients who used stable doses of antipsychotics and/or certain antidepressants) were also included unless the treatment of the psychiatric comorbidity had to take priority over treatment of the drinking problem, or was likely to interfere with study treatment or impairs treatment compliance.
The studies included in total 1997 patients, 1173 of whom were treated with nalmefene 18 mg in an as-needed dosing regimen. A motivational and adherence enhancing intervention was administered to all the patients to support the patients in changing their behavior and to enhance adherence to treatment.
The efficacy of nalmefene on the reduction of alcohol consumption was measured using two co-primary endpoints: the change in the monthly number of heavy drinking days (HDDs) and the change in the average daily total alcohol consumption (TAC). A HDD was defined as a day with a consumption ≧60 g alcohol for men and ≧40 g for women.

rats [4] = assay: Elevated plus maze test in rats; format: in vivo, rat; settings: 0.01, 0.1 and 1 mg/kg s.c. 30 minutes before the test; 5 minutes; vs vehicle
Excerpt: Rats have an aversion of open spaces and avoid them by confining movements to enclosed spaces or to the edges of a bounded space. Anxiolytic activity can be tested in a test setting consists of a plus-shaped apparatus with two open and two enclosed arms, each with an open roof, elevated 40-70 cm from the floor according to Pellow et al., J. Neurosci. Methods. (1985) August; 14(3):149-67. Pretreatment of rats with anxiolytic active compounds will increase in the proportion of time spent in the open arms (time in open arms/total time in open or closed arms), and an increase in the proportion of entries into the open arms (entries into open arms/total entries into open or closed arms). Total number of arm entries and number of closed-arm entries can be employed as measures of general activity.
Nalmefene was tested as the sole active compound in the elevated plus maze test in rats. A rat was placed in the centre of the plus-maze and left to explore for 5 minutes. The number of entries into the open and closed arms and the time spent on the open arms were recorded. The % of open arm entries (open arm entries/total arm entries×100) was calculated. Nalmefene was evaluated at 3 doses (0.01, 0.1 and 1 mg/kg), administered s.c. 30 minutes before the test, and compared with a vehicle control group.

Mice (NMRI) = assay: Marble burying test in mouse; format: in vivo; settings: 0.01 or 1 mg/kg s.c.
Procedure: The method, which detects anxiolytic/tranquillizing activity, follows that described by Broekkamp et al (Eur. J. Pharmacol., 126, 223-229, 1986). Mice exposed to novel objects (marbles) will bury them in the sawdust floor covering. Anxiolytics decrease the number of marbles buried at non-sedative doses.
Nalmefene was tested in the marble burying model as the sole active compound. Mice (NMRI) were individually placed in transparent plastic cages (33×21×18 cm) with 5 cm of sawdust on the floor and 25 marbles grouped in the centre of the cage. The cage was covered with an inverted plastic cage. Each test cage, together with the marbles, was impregnated with mouse odor before-hand by leaving 10 mice in the cage for 15 minutes. These mice then played no further role in the experiment.
The number of marbles covered by sawdust (⅔ or more) was counted at the end of a 30 minute test. 12 mice were studied per group. The test was performed blind. Nalmefene was evaluated at 3 doses (0.01, 0.1 and 1 mg/kg), administered s.c. 30 minutes before the test, and compared with a vehicle control group. […]
Data with the test substance were analysed by comparing treated groups with vehicle control using Kruskall-Wallis test followed by Mann-Whitney U tests. Data with the reference substance were analysed using Mann-Whitney U tests. […]

[5] = test system: patients with alcohol dependence; assay: Clinical efficacy measured by SF-36 Mental Component Summary (FAS, OC); format: in vivo, human; settings: for SF-36 Mental Component Summary, Change to Week 12, Mean ± SE / SF-36 Mental Component Summary, Change to Week 24, Mean ± SE: pooled studies, FAS, OC
Excerpt: Another method for measuring a patient's health status is by the SF-36 which is a patient-reported outcome developed as a general measure of perceived health status. The mental component summary score focuses on mental aspects of health related quality of life. Higher scores correspond to better health status or well-being.

[6] = total patient group, nalmefene 18 mg as-needed vs placebo
[7] = no anxiety disorder at baseline

δ receptor, sequence (P41143 whole entry): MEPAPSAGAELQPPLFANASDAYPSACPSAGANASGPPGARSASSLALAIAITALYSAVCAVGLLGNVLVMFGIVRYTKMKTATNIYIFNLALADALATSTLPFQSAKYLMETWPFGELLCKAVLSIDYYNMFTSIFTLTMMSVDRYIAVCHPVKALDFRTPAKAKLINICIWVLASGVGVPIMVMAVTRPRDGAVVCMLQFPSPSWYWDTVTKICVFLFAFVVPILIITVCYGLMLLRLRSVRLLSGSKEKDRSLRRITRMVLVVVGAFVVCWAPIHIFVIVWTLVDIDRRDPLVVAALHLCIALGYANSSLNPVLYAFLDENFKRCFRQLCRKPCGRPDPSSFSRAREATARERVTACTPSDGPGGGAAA
κ receptor, sequence (P41145 whole entry): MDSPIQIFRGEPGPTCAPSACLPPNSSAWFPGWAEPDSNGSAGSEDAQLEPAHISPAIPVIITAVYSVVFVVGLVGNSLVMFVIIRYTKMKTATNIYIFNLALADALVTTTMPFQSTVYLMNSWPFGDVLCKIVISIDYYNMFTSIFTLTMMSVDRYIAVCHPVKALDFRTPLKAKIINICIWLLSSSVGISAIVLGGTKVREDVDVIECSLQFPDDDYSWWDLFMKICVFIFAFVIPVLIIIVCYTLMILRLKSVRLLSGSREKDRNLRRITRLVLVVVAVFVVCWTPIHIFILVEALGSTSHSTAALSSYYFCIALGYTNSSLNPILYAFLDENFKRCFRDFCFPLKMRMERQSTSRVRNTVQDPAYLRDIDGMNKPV
μ receptor, sequence (P35372 whole entry): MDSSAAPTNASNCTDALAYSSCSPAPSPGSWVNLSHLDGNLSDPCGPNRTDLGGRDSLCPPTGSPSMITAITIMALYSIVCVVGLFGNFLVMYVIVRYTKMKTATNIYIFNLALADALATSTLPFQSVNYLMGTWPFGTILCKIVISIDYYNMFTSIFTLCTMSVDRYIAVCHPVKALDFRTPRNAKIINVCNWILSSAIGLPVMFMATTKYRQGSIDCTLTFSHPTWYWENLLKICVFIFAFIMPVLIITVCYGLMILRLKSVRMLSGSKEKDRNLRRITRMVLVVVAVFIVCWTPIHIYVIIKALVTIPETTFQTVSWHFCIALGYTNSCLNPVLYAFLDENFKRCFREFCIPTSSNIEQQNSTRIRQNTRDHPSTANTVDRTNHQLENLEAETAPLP

SMILES: C=C1CC[C@@]2(O)[C@H]3Cc4ccc(O)c5c4[C@@]2(CCN3CC2CC2)[C@H]1O5 [Nalmefene, 17-(cyclopropylmethyl)-4,5-alpha-epoxy-6-methylenemorphinan-3,14-diol]
- activity at the κ receptor (κ receptor): partial agonist activity
- activity at the δ receptor (δ receptor): antagonist activity
- activity at the μ receptor (μ receptor): antagonist activity
- number of punished drinks (rats [1]): No significant effect
- POMS score, nalmefene vs placebo ([2]; patients with an anxiety disorder at baseline, end of the study): better POMS score
- POMS total mood disturbance, tension-anxiety, depression-rejection, anger-hostility and confusion, nalmefene vs placebo ([2]; patients with an anxiety disorder at baseline, weeks 4-24): better POMS scores
- POMS score, nalmefene vs placebo ([2]; patients without an anxiety disorder at baseline, throughout the study): no pronounced difference between nalmefene and placebo
- alcohol consumption ([3]; patients with an anxiety disorder at baseline): significally reduced
- reducing TAC (change from baseline in average daily total alcohol consumption) [3, 6]: superior to placebo
- reducing the number of HDDs (change from baseline in monthly number of heavy drinking days) [3, 6]: superior to placebo
- difference between nalmefene and placebo measured in HDDs and TAC ([3]; week 24, patients with an anxiety disorder at baseline compared with patients without): merely at the same level
- open and closed arm entries, time spent on the open arms, % of open arm entries (rats [4]): No significant effect
- effect on number of marbles covered by sawdust compared with vehicle controls (Mice (NMRI)): no significant effects
- difference between nalmefene and placebo in the change from baseline in SF-36 mental component summary score ([5]; Week 12 and Week 24, patients with an anxiety disorder at baseline compared with patients without): more pronounced
- SF-36 Mental Component Summary, Change to Week 12, Mean ± SE ([5]; anxiety disorder at baseline): 6.23 ± 1.47
- SF-36 Mental Component Summary, Change to Week 24, Mean ± SE ([5]; anxiety disorder at baseline): 7.56 ± 2.24
- SF-36 Mental Component Summary, Change to Week 12, Mean ± SE [5, 7]: 4.77 ± 0.37
- SF-36 Mental Component Summary, Change to Week 24, Mean ± SE [5, 7]: 5.65 ± 0.43
